Data as given in patent US8324380B2, “Amino-heteroaryl-containing prokineticin 1 receptor antagonists” (Janssen Pharmaceutica NV, priority 2007, dated 2012).
Where two headings read alike, the source gives them in different places.

Experiments:
[1] = tested on: rat ileal tissues; test: PK1-evoked short-circuit current (Isc) in rat ileum mucosa, Ussing-type flux chambers
[2] = target: T1, GPR73 (prokineticin 1 receptor) (Homo sapiens, UniProt Q8TCW9); test: PK1 functional assay: Ca2+ mobilization on the FLIPR; type: cell-based; conditions: for inhibition at 10 µM: read-out: Ca^2+ Mobilization % Inh @10 µM; for IC50: HEK 293 GPR73 cells, read-out: Ca^2+ Mobilization IC50
T1 construct: expressed in transfected cells; host or cells: HEK 293
T1 sequence (Q8TCW9 whole entry, species assumed): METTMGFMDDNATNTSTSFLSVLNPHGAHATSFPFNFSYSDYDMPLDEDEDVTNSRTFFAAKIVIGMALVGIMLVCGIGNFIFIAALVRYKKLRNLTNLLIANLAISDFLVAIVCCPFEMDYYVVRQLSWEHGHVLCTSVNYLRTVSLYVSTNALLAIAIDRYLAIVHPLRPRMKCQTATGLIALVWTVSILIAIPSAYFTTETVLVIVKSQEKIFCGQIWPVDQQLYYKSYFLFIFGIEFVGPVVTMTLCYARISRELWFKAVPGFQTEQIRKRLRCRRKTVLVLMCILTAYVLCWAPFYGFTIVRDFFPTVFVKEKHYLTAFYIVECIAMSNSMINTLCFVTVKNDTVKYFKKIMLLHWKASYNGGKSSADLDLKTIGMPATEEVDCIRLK
Description: At a time of 24 h prior to running the assay, in cell culture media (DMEM containing high Glucose and L-glutamine, 10% FBS, 1% Pen/Streptomycin, 1% Sodium Pyruvate, 20 mM HEPES, Zeocin 200 mg/L), 100 µL of 1.3*10^6/ml HEK 293 GPR73 (prokineticin 1 receptor) expressing cells were plated in a 96 well poly-d-lysine coated plate (Costar), and incubated at 37° C. and 5% CO2. On the day in which the assay was run, the media was removed and 200 µL of 5× Calcium Plus Dye (Molecular Devices) which was previously resuspended with 200 mL of assay buffer [HBSS w/Ca^2+ and Mg^2+ w/o phenol red, 20 mM HEPES, 0.1% BSA, 10 mL probenecid (710 mg probenecid in 5 mL of 1N NaOH, to which was then added 5 mL HBSS containing 20 mM HEPES)] was added to each well of the 96-well plate. The plate was incubated at 37° C. and 5% CO2 for 30 min in dark. The plate was removed and allowed to reach RT for 15 min in the dark. The assay was then run on the FLIPR. In Brief: base line read for 1 min, compound added (25 μL) and incubated for 4 min, 15 seconds, PK1 ligand preparation added (25 μL) for a final concentration of a previously determined EC50 and fluorescence was counted for 1 min, 45 seconds. Baseline is described as the amount of relative fluorescence read when buffer alone is added to cells. Baseline was subtracted from all wells. Percent of control was calculated as follows: (Baseline subtracted well value is divided by baseline subtracted max value)*100. Percent inhibition is 100 minus the percent of control value.
The IC50 is defined as the amount of a given compound required to inhibit 50% of the maximum signal that is generated by the concentration of PK1 preparation used in our assay. IC50 values were calculated using GraphPad Prism.

[3] = tested on: ileum mucosal tissues from PK1 receptor knock-out mice; test: PK1-evoked Isc in ileum mucosal tissues from PK1 receptor knock-out mice; conditions: exogenous PK1 peptide

Molecule	inhibition at 10 µM ([2]; 10 µM)	IC50 [2]	further results
NC1=N[C@H](O)[C@H]2[C@H]3O[C@]4(O)O[C@@H]([C@@H](O)[C@@]2(N1)[C@@H]4O)[C@]3(O)CO [Tetrodotoxin, reference compound]	–	–	blockade of the pro-secretory effect of PK1 [1]: not blocked
Nc1nc2ccc(Cl)cc2n1CCNc1nc(=O)n(Cc2ccc(F)cc2)c(=O)n1Cc1ccc(OC(F)F)cc1 [Cpd 30]	86%	252 nM	–
COc1ccc(Cn2c(NCCc3cnc(N)[nH]3)nc(=O)n(Cc3ccc4c(c3)nnn4C)c2=O)cc1 [Cpd 67]	93%	171 nM	–
Nc1nc2c(F)cccc2n1CCNc1nc(=O)n(Cc2ccc(F)cc2)c(=O)n1Cc1ccc(OC(F)(F)F)cc1 [Cpd 39]	80%	380 nM	–
CCc1ccc(Cn2c(=O)nc(NCCn3c(N)nc4ccccc43)n(Cc3ccc(OC(F)F)cc3)c2=O)cc1 [Cpd 86]	94%	337 nM	–
NC1=Nc2cccc(Cl)c2CN1CCNc1nc(=O)n(Cc2ccc(F)cc2)c(=O)n1Cc1ccc(OC(F)(F)F)cc1 [Cpd 48]	101%	116 nM	–
COc1ccc(Cn2c(NCCn3c(N)nc4ccccc43)nc(=O)n(Cc3ccc4c(c3)nnn4C)c2=O)cc1 [Cpd 77]	99%	55 nM	–
COc1ccc(Cn2c(NCCn3c(N)nc4cc(S(C)(=O)=O)ccc43)nc(=O)n(Cc3ccc(F)cc3)c2=O)cc1 [Cpd 9]	67%	2290 nM	–
NC1=Nc2ccc(F)cc2CN1CCNc1nc(=O)n(Cc2ccc(F)cc2)c(=O)n1Cc1ccc(OC(F)F)cc1 [Cpd 45]	101%	92 nM	–
Nc1nc2ccccc2n1CCNc1nc(=O)n(Cc2ccc(Cl)c(Cl)c2)c(=O)n1Cc1ccc2c(c1)CCO2 [Cpd 73]	90%	186 nM	–
COc1ccc(Cn2c(NCCN3Cc4ccccc4N=C3N)nc(=O)n(Cc3ccc(F)cc3)c2=O)cc1 [Cpd 12, 6-[2-(2-Amino-4H-quinazolin-3-yl)-ethylamino]-3-(4-fluoro-benzyl)-1-(4-methoxy-benzyl)-1H-[1,3,5]triazine-2,4-dione]	94%	28 nM	–
Nc1nc2ccc(Cl)cc2n1CCNc1nc(=O)n(Cc2ccc(F)cc2)c(=O)n1Cc1ccc(OC(F)(F)F)cc1 [Cpd 38]	84%	670 nM	–
COc1ccc(Cn2c(NCCn3c(N)nc4ccccc43)nc(=O)n(Cc3ccc(Cl)cc3)c2=O)cc1 [Cpd 14]	95%	77 nM	–
CN1[C@@H]2CC[C@H]1C[C@@H](OC(=O)C(CO)c1ccccc1)C2 (some centres unmarked) [Atropine, reference compound]	–	–	blockade of the pro-secretory effect of PK1 [1]: not blocked
Nc1nc2cc(C(F)(F)F)ccc2n1CCNc1nc(=O)n(Cc2ccc(F)cc2)c(=O)n1Cc1ccc(OC(F)(F)F)cc1 [Cpd 35]	59%	5010 nM	–
Nc1nc2ccc(F)c(F)c2n1CCNc1nc(=O)n(Cc2ccc(F)cc2)c(=O)n1Cc1ccc(OC(F)(F)F)cc1 [Cpd 37]	72%	2200 nM	–
COc1ccc(Cn2c(NCCn3c(N)nc4c(F)cccc43)nc(=O)n(Cc3ccc(F)cc3)c2=O)cc1 [Cpd 11]	89%	146 nM	–
CSc1ccc(Cn2c(=O)nc(NCCn3c(N)nc4ccccc43)n(Cc3ccc(OC(F)F)cc3)c2=O)cc1 [Cpd 85]	99%	157 nM	–

Molecule	inhibition at 10 µM ([2]; 10 µM)	IC50 [2]	further results
Nc1nc2ccc(F)cc2n1CCNc1nc(=O)n(Cc2ccc(F)cc2)c(=O)n1Cc1ccc(OC(F)F)cc1 [Cpd 25]	87%	170 nM	–
CCc1ccc(Cn2c(=O)nc(NCCn3c(N)nc4ccccc43)n(Cc3ccc4c(c3)CCO4)c2=O)cc1 [Cpd 75]	83%	507 nM	–
CCc1ccc(Cn2c(=O)nc(NCCc3cnc(N)[nH]3)n(Cc3ccc(OC(F)F)cc3)c2=O)cc1 [Cpd 81]	90%	502 nM	–
Nc1nc2c(F)cc(F)cc2n1CCNc1nc(=O)n(Cc2ccc(F)cc2)c(=O)n1Cc1ccc(OC(F)F)cc1 [Cpd 28]	39%	> 10000 nM	–
COc1ccc(Cn2c(NCc3c[nH]c(N)n3)nc(=O)n(Cc3ccc(F)cc3)c2=O)cc1 [Cpd 6]	91%	322 nM	–
Nc1nccn1CCNc1nc(=O)n(Cc2ccc(F)cc2)c(=O)n1Cc1ccc(OC(F)(F)F)cc1 [Cpd 22]	100%	61 nM	–
COc1ccc(Cn2c(NCCc3cnc(N)[nH]3)nc(=O)n(Cc3ccc(F)cc3)c2=O)cc1 [Cpd 4]	97%	48 nM	inhibition at 10 µM ([2]; 10 µM, (further determination)): 96%; IC50 ([2]; IC50 (further determination)): 42 nM
NC1=Nc2ccccc2CN1CCNc1nc(=O)n(Cc2ccc(F)cc2)c(=O)n1Cc1ccc(OC(F)(F)F)cc1 [Cpd 47]	100%	123 nM	–
COc1ccc(Cn2c(NCCn3c(N)nc4cc(C(F)(F)F)ccc43)nc(=O)n(Cc3ccc(F)cc3)c2=O)cc1 [Cpd 8]	95%	163 nM	–
CCc1ccc(Cn2c(=O)nc(NCCc3cnc(N)[nH]3)n(Cc3ccc(OC)cc3)c2=O)cc1 [Cpd 60]	85%	295 nM	–
NC1=Nc2ccc(O)cc2CN1CCNc1nc(=O)n(Cc2ccc(F)cc2)c(=O)n1Cc1ccc(OC(F)F)cc1 [Cpd 56]	100%	161 nM	–
NC1=Nc2cc(F)ccc2CN1CCNc1nc(=O)n(Cc2ccc(F)cc2)c(=O)n1Cc1ccc(OC(F)(F)F)cc1 [Cpd 52]	104%	359 nM	–
NC1=Nc2cc(Cl)ccc2CN1CCNc1nc(=O)n(Cc2ccc(F)cc2)c(=O)n1Cc1ccc(OC(F)(F)F)cc1 [Cpd 50]	99%	332 nM	–
COc1ccc(Cn2c(NCCn3c(N)nc4cc(F)ccc43)nc(=O)n(Cc3ccc(F)cc3)c2=O)cc1 [Cpd 5]	102%	69 nM	–
Cn1nnc2cc(Cn3c(=O)nc(NCCn4c(N)nc5ccccc54)n(Cc4ccc5c(c4)CCO5)c3=O)ccc21 [Cpd 78]	102%	66 nM	inhibition at 10 µM ([2]; 10 µM, (further determination)): 104%; IC50 ([2]; IC50 (further determination)): 130 nM
COc1cccc2c1nc(N)n2CCNc1nc(=O)n(Cc2ccc(F)cc2)c(=O)n1Cc1ccc(OC(F)F)cc1 [Cpd 55]	91%	233 nM	–
Nc1nc2cccc(F)c2n1CCNc1nc(=O)n(Cc2ccc(F)cc2)c(=O)n1Cc1ccc(OC(F)(F)F)cc1 [Cpd 40]	91%	969 nM	–
PK1: Recombinant human prokineticin-1 expressed in HEK 293 cells; preparation holds full-length ligand and a four C-terminal residue truncated product (protein, UniProt P58294 20-105, looked up, mixture with C-terminally truncated product, Recombinant human prokineticin-1 expressed in HEK 293 cells; preparation holds full-length ligand and a four C-terminal residue truncated product) Prokineticin-1: AVITGACERDVQCGAGTCCAISLWLRGLRMCTPLGREGEECHPGSHKVPFFRKRKHHTCPCLPNLLCSRFPDGRYRCSMDLKNINF	–	–	change in Isc compared to wild-type littermates [3]: failed to elicit a significant change; effect on tissue conductance (G) [1]: no significant effect; increase in Isc from baseline ([1]; 10 nM PK1): 13.5±2. […]A/cm^2; increase in Isc from baseline ([1]; 100 nM PK1): 28.7±2.9 µA/cm^2; EC50 ([1]; read-out: EC50 of PK1-evoked increases in Isc, cumulative concentration-response, basolateral addition): ~8.2 nM
